Values quoted from earlier work, collected in paper PMC9301717 (ACS Omega, 2022).

Tests used:
IDE [1] = system: IDE
IDE [2] = system: IDE; remark: listed apart in the source

SMILES: Oc1ccc(/C=C/c2cc(O)cc(O)c2)cc1 [resveratrol]
- effect on the enzyme's ability to degrade insulin (IDE [1]): has no effect
- effect on IDE's activity toward Aβ42 (IDE [2]): sustains
